Assay results published in ChEMBL document CHEMBL4665784, “Discovery of an Inhibitor for the TREK-1 Channel Targeting an Intermediate Transition State of Channel Gating” (J Med Chem, 2020).
The source made the active and inactive calls. The calls are words filed in the database; no cut-off is given here.

How the values were obtained:
Assay type in all cases: cell-based
[1] = target: T1, Potassium channel subfamily K member 2 (Homo sapiens) (UniProt O95069); assay: Inhibition of human TREK1 in open state expressed in CHO cells in presence of 10 uM TREK1 activator arachidonic acid by whole-cell patch-clamp electrophysiological method
T1 sequence (whole entry): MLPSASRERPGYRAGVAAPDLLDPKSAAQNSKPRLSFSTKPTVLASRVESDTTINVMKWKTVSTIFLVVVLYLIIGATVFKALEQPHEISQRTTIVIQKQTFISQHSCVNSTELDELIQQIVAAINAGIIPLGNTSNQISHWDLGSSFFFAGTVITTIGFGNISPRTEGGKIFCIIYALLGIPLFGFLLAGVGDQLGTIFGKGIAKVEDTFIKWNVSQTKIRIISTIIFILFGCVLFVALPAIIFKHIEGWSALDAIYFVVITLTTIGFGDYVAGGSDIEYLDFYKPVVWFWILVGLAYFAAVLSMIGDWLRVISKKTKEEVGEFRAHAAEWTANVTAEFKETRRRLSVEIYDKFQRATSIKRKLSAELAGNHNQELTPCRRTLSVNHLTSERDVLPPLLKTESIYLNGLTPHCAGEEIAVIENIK

[2] = target: T1, Potassium channel subfamily K member 2 (Homo sapiens); assay: Inhibition of human TREK1 R207A mutant at intermediate transition state expressed in CHO cells by whole-cell patch-clamp electrophysiological method
[3] = target: T2, Potassium channel subfamily K member 4 (Homo sapiens) (UniProt Q9NYG8); assay: Inhibition of human TRAAK at intermediate transition state expressed in CHO cells by whole-cell patch-clamp electrophysiological method
T2 sequence (whole entry): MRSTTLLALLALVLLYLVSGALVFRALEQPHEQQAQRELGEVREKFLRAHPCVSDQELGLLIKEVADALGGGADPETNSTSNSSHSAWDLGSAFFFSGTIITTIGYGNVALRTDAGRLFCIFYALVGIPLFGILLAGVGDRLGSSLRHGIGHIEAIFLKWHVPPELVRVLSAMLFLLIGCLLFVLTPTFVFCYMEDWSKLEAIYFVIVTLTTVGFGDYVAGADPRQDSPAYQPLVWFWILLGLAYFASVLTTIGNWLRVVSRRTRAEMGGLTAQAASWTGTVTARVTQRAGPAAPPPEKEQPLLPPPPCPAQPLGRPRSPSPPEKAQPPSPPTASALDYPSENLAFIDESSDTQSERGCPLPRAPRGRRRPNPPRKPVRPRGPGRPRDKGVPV

[4] = target: T3, Potassium channel subfamily K member 10 (Homo sapiens) (UniProt P57789); assay: Inhibition of human TREK2 at intermediate transition state expressed in CHO cells by whole-cell patch-clamp electrophysiological method
T3 sequence (whole entry): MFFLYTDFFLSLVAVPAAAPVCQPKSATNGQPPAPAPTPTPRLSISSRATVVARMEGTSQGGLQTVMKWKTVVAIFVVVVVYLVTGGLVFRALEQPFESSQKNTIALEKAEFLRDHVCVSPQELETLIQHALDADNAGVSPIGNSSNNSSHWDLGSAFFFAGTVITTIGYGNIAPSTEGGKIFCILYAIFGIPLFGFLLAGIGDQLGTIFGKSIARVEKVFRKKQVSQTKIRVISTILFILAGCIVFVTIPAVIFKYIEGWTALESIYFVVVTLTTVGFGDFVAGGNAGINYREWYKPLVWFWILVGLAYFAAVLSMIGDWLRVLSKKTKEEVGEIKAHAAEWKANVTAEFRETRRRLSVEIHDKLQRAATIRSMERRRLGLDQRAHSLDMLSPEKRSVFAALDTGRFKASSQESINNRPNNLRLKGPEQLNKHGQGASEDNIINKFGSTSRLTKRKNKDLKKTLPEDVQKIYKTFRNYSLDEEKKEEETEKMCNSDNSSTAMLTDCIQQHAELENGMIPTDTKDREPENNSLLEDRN

[5] = target: T1, Potassium channel subfamily K member 2 (Homo sapiens); assay: Inhibition of human TREK1 D294A mutant at intermediate transition state expressed in CHO cells by whole-cell patch-clamp electrophysiological method
[6] = target: T1, Potassium channel subfamily K member 2 (Homo sapiens); assay: Inhibition of human TREK1 S290A mutant at intermediate transition state expressed in CHO cells by whole-cell patch-clamp electrophysiological method
[7] = target: T1, Potassium channel subfamily K member 2 (Homo sapiens); assay: Inhibition of human TREK1 V288A mutant at intermediate transition state expressed in CHO cells by whole-cell patch-clamp electrophysiological method
[8] = target: T1, Potassium channel subfamily K member 2 (Homo sapiens); assay: Inhibition of human TREK1 W295A mutant at intermediate transition state expressed in CHO cells by whole-cell patch-clamp electrophysiological method
[9] = target: T1, Potassium channel subfamily K member 2 (Homo sapiens); assay: Inhibition of human TREK1 M291A mutant at intermediate transition state expressed in CHO cells by whole-cell patch-clamp electrophysiological method
[10] = target: T1, Potassium channel subfamily K member 2 (Homo sapiens); assay: Inhibition of human TREK1 T211A mutant at intermediate transition state expressed in CHO cells by whole-cell patch-clamp electrophysiological method
[11] = target: T1, Potassium channel subfamily K member 2 (Homo sapiens); assay: Inhibition of human TREK1 at intermediate transition state expressed in CHO cells assessed as decrease in probability of TREK1 channel being in open state by single-channel recordings based by inside-out patch method
[12] = target: T1, Potassium channel subfamily K member 2 (Homo sapiens); assay: Effect on channel conductance of human TREK1 expressed in CHO cells by single-channel recordings based by inside-out patch method
[13] = target: T1, Potassium channel subfamily K member 2 (Homo sapiens); assay: (§1) Inhibition of human TREK1 at intermediate transition state expressed in CHO cells by whole-cell patch-clamp electrophysiological method
[14] = target: T4, Potassium channel subfamily K member 2 (Homo sapiens, UniProt O95069); assay: as §1
T4 sequence (O95069 whole entry): T1 sequence (whole entry)

With `O=C(CSc1ccc2ccccc2n1)NNC(=O)c1ccc(Cl)cc1` the inhibition [1] was “inactive”, the inhibition [2] was “Active” and the inhibition [3] was “inactive”. For the same molecule, the inhibition [4] was “Active”, the inhibition [5] was “inactive” and the inhibition [6] was “Active”. The inhibition [7] was “Active”, the inhibition [8] was “inactive” and the inhibition [9] was “inactive”. The inhibition [10] was “inactive”, the inhibition [11] was “Active” and the Activity [12] was “inactive”. The inhibition [13] was “Dose-dependent effect” and the IC50 [14] was 2990 nM.
`O=C(CSc1ccc2cc(F)ccc2n1)NNC(=O)c1ccc(Cl)cc1` was tested, and the inhibition [5] was “inactive”, the inhibition [6] was “Active” and the inhibition [13] was “Active”.
With `COc1ccc2nc(SCC(=O)NNC(=O)c3ccc(Cl)cc3)ccc2c1` the inhibition [5] was “Active”, the inhibition [6] was “inactive” and the inhibition [13] was “Active”.
For `CNCCC(Oc1ccc(C(F)(F)F)cc1)c1ccccc1` (stereo unspecified), the inhibition [2] was “inactive”.
